The term ΔTm denotes the shift of the melting midpoint relative to a reference. Usually inhibition stands for how much of the control response was suppressed. A word on the Kd: it is the free concentration of one partner at which half of the binding sites on the other are occupied at equilibrium, for simple one-to-one binding.

Peptide text beside a SMILES is read from it. * marks the point of attachment. X1 = CC(C)[C@H](N*)B(O)O

This note sets out measurements from ChEMBL document CHEMBL5252564, “It's ok to be outnumbered - sub-stoichiometric modulation of homomeric protein complexes” (RSC Med Chem, 2023).

For assay [1], the target named is Programmed cell death 1 ligand 1 (Homo sapiens) (UniProt Q9NZQ7).
Sequence of Programmed cell death 1 ligand 1 (Homo sapiens) (Q9NZQ7 whole entry): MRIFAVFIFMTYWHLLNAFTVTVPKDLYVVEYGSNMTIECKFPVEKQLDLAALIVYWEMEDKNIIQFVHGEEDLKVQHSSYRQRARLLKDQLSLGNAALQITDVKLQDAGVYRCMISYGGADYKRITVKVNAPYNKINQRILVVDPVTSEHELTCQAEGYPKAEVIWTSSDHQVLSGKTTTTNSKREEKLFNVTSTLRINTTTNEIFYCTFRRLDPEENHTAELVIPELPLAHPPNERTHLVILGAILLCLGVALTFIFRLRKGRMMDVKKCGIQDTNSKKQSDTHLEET
Description: Binding affinity to human PD-L1 (18 to 134 residues) expressed in Escherichia coli BL21(DE3) assessed as thermal stabilization by measuring melting temperature by DSF assay
Assay [2] deals with T1, ATP-dependent Clp protease proteolytic subunit (Staphylococcus aureus (strain NCTC 8325)) (UniProt Q2G036).
T1 sequence (whole entry): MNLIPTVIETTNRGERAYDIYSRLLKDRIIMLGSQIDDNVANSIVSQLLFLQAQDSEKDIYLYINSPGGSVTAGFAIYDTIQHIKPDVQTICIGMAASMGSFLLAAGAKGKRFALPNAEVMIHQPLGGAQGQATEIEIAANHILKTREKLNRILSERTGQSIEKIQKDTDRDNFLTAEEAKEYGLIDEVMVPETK
Kind of assay: Inhibition of Staphylococcus aureus ClpP assessed as active site modification at 1 uM treated for 1 hr by mass spectrometry analysis relative to control.

A short description of assay [3]: Binding affinity to Escherichia coli DegP using SPMFKGV-pNA as substrate at resting state by isothermal titration calorimetry.
Assay [4] can be described thus: Binding affinity to Escherichia coli DegP using SPMFKGV-pNA as substrate at activated state by isothermal titration calorimetry. On the technique in general: ITC needs no label: the signal is the heat of the interaction.

As to `COc1nc(OCc2cccc(-c3ccccc3)c2C)ccc1CNCCNC(C)=O`, the ΔTm in assay [1] is 13 °C. Take `C#Cc1ccc(C(=O)C2CN(C(=O)CCCCCCCCC=C)S2(=O)=O)cc1` (stereo not given): in assay [2], the inhibition came out at 63%.

As to `C#CCCC[C@H]1OC(=O)[C@@H]1c1ccc(OC)cc1`, the inhibition in assay [2] was 35%.

Turning to `CSCC[C@H](NC(=O)[C@@H]1CCCN1C(=O)[C@@H](N)CC(=O)O)C(=O)N[C@@H](Cc1ccccc1)C(=O)N[C@@H](CCCCN)C(=O)N[C@@H](CC(C)C)C(=O)N[C@H](B(O)O)C(C)C` (H-DPMFKL-X1), the Kd is 6 µM in assay [3] and 0.033 µM in assay [4].
